Drawing on patent publication US9359308B2, “Pyrazine kinase inhibitors” (Portola Pharmaceuticals, Inc., priority 2011, dated 2016), this text covers IC50 for 34 molecules.

Each structure is given as a SMILES string.

This assay deals with T1, full length active recombinant SYK enzyme (Homo sapiens, UniProt P43405).
T1 construct: full length active recombinant SYK enzyme (Millipore, Calif.); purchased Millipore
As to the kind of experiment: Inhibition of Syk tyrosine phosphorylation activity (LANCE TR-FRET kinase assay). The class given is biochemical. As to conditions: activity in the Syk assays, class symbols. Summed up:
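1 nM full-length active recombinant SYK phosphorylated 550 nM biotin-DEEDYESP-OH with 100 μM ATP in 50 mM Tris pH 7.5, 5 mM MgCl2, 1 mM DTT and 3% DMSO for 1 h at room temperature. After EDTA quench, Eu-anti-phosphotyrosine/SA-APC TR-FRET was read after 1 h. IC50s came from non-linear regression.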
In general terms: In TR-FRET formats the signal depends on donor and acceptor labels being close together.
Usually IC50 stands for the concentration that inhibits the measured activity by half. For the molecule `CC[C@@H](Nc1nc(Nc2cc(C)ns2)c(C(N)=O)nc1Cl)C(N)=O` [Example 137, (R)-5-((1-amino-1-oxobutan-2-yl)amino)-6-chloro-3-((3-methylisothiazol-5-yl)amino)pyrazine-2-carboxamide], the half-maximal inhibitory concentration (IC50) lay in the range of 10 to 100 nM. As for `Cc1nsc(Nc2nc(N[C@@H]3CCCC[C@@H]3N)cnc2C(N)=O)c1F` [Example 138], the IC50 lay within 1 to 10 nM. As to `Cc1cc(Nc2nc(N[C@H]3CN[C@@H](CO)C3)cnc2C(N)=O)sn1` [Example 139, 5-(((3R,5R)-5-(hydroxymethyl)pyrrolidin-3-yl)amino)-3-((3-methylisothiazol-5-yl)amino)pyrazine-2-carboxamide], the IC50 lay in the range of 10 to 100 nM.

In the case of `NC(=O)c1ncc(N[C@H]2CN[C@@H](CO)C2)nc1Nc1cnc2ccc(F)cc2c1` [Example 140, 3-((6-fluoroquinolin-3-yl)amino)-5-(((3R,5R)-5-(hydroxymethyl)pyrrolidin-3-yl)amino)pyrazine-2-carboxamide], the IC50 fell in the range of 1 to 10 nM. In the case of `COc1ccc(Nc2nc(N[C@@H](C(N)=O)C(C)C)cnc2C(N)=O)cc1OC` [Example 141, (R)-5-(1-amino-3-methyl-1-oxobutan-2-ylamino)-3-(3,4-dimethoxyphenylamino)pyrazine-2-carboxamide], the IC50 is 10 to 100 nM. As to `COc1ccc(Nc2nc(N[C@@H]3CCCC[C@@H]3N)cnc2C(N)=O)cc1OC` [Example 142, 5-((1R,2S)-2-aminocyclohexylamino)-3-(3,4-dimethoxyphenylamino)pyrazine-2-carboxamide], the IC50 fell in the range of 1 to 10 nM.

Regarding `Cc1cc(Nc2nc(N[C@@H]3CCCC[C@@H]3N)cnc2C(N)=O)ccc1N1CCOCC1` [Example 143, 5-((1R,2S)-2-aminocyclohexylamino)-3-(3-methyl-4-morpholinophenylamino)pyrazine-2-carboxamide], the IC50 was 1 to 10 nM. For the molecule `CC(C)[C@@H](Nc1cnc(C(N)=O)c(Nc2cccc(CN3CCOCC3)c2)n1)C(N)=O` [Example 144, (R)-5-(1-amino-3-methyl-1-oxobutan-2-ylamino)-3-(3-(morpholinomethyl)phenylamino)pyrazine-2-carboxamide], the IC50 was 100 to 1000 nM.

Take `CS(=O)(=O)Cc1ccc(Nc2nc(N[C@@H]3CCCC[C@@H]3N)cnc2C(N)=O)cc1` [Example 145, 5-((1R,2S)-2-aminocyclohexylamino)-3-(4-(methylsulfonylmethyl)phenylamino)pyrazine-2-carboxamide]: the IC50 lay within 10 to 100 nM.

Take `CC(C)[C@@H](Nc1cnc(C(N)=O)c(Nc2ccc3c(c2)OCO3)n1)C(N)=O` [Example 146, (R)-5-(1-amino-3-methyl-1-oxobutan-2-ylamino)-3-(benzo[d][1,3]dioxol-5-ylamino)pyrazine-2-carboxamide]: the IC50 was in the range of 100 to 1000 nM. Turning to `CC(C)[C@@H](Nc1cnc(C(N)=O)c(Nc2cccc(OC(F)(F)F)c2)n1)C(N)=O` [Example 147, (R)-5-(1-amino-3-methyl-1-oxobutan-2-ylamino)-3-(3-(trifluoromethoxy)phenylamino)pyrazine-2-carboxamide], the half-maximal inhibitory concentration (IC50) lay in the range of 100 to 1000 nM. As for `CC(C)[C@@H](Nc1cnc(C(N)=O)c(Nc2ccc(CN3CCOCC3)cc2)n1)C(N)=O` [Example 148, (R)-5-(1-amino-3-methyl-1-oxobutan-2-ylamino)-3-(4-(morpholinomethyl)phenylamino)pyrazine-2-carboxamide], the IC50 was in the range of 100 to 1000 nM. Take `CC(C)[C@@H](Nc1cnc(C(N)=O)c(Nc2ccc(-n3ccnc3)cc2)n1)C(N)=O` [Example 149, (R)-3-(4-(1H-imidazol-1-yl)phenylamino)-5-(1-amino-3-methyl-1-oxobutan-2-ylamino)pyrazine-2-carboxamide]: the IC50 is 10 to 100 nM.

For the molecule `CC(C)[C@@H](Nc1cnc(C(N)=O)c(Nc2ccc(CS(C)(=O)=O)cc2)n1)C(N)=O` [Example 150, (R)-5-(1-amino-3-methyl-1-oxobutan-2-ylamino)-3-(4-(methylsulfonylmethyl)phenylamino)pyrazine-2-carboxamide], the IC50 was in the range of 100 to 1000 nM. In the case of `CC[C@@H](Nc1cnc(C(N)=O)c(Nc2ccc(OC)c(OC)c2)n1)C(N)=O` [Example 151, (R)-5-(1-amino-1-oxobutan-2-ylamino)-3-(3,4-dimethoxyphenylamino)pyrazine-2-carboxamide], the IC50 lay within 10 to 100 nM.

Regarding `CC[C@@H](Nc1cnc(C(N)=O)c(Nc2ccc(C)cc2)n1)C(N)=O` [Example 152, (R)-5-(1-amino-1-oxobutan-2-ylamino)-3-(p-tolylamino)pyrazine-2-carboxamide], the IC50 is 10 to 100 nM. As for `CS(=O)(=O)c1ccc(Nc2nc(N[C@@H]3CCCC[C@@H]3N)cnc2C(N)=O)cc1` [Example 153, 5-((1R,2S)-2-aminocyclohexylamino)-3-(4-(methylsulfonyl)phenylamino)pyrazine-2-carboxamide], the IC50 lay within 1 to 10 nM.

As to `CS(=O)(=O)c1cccc(Nc2nc(N[C@@H]3CCCC[C@@H]3N)cnc2C(N)=O)c1` [Example 154, 5-((1R,2S)-2-aminocyclohexylamino)-3-(3-(methylsulfonyl)phenylamino)pyrazine-2-carboxamide], the IC50 is 10 to 100 nM. Consider `Cc1ccc(Nc2nc(N[C@@H](C(N)=O)C(C)C)cnc2C(N)=O)cc1` [Example 155, (R)-5-(1-amino-3-methyl-1-oxobutan-2-ylamino)-3-(p-tolylamino)pyrazine-2-carboxamide], for which the IC50 is 10 to 100 nM. Turning to `CC(C)[C@@H](Nc1cnc(C(N)=O)c(Nc2ccc(S(=O)(=O)N(C)C)cc2)n1)C(N)=O` [Example 156, (R)-5-(1-amino-3-methyl-1-oxobutan-2-ylamino)-3-(4-(N,N-dimethylsulfamoyl)phenylamino)pyrazine-2-carboxamide], the IC50 lay within 10 to 100 nM. As for `CC(=O)N(C)c1ccc(Nc2nc(N[C@@H](C(N)=O)C(C)C)cnc2C(N)=O)cc1` [Example 157, (R)-5-(1-amino-3-methyl-1-oxobutan-2-ylamino)-3-(4-(N-methylacetamido)phenylamino)pyrazine-2-carboxamide], the IC50 lay within 100 to 1000 nM. As for `CC[C@@H](Nc1cnc(C(N)=O)c(Nc2cc(OC)cc(OC)c2)n1)C(N)=O` [Example 158, (R)-5-(1-amino-1-oxobutan-2-ylamino)-3-(3,5-dimethoxyphenylamino)pyrazine-2-carboxamide], the IC50 lay in the range of 10 to 100 nM. With `CC[C@@H](Nc1cnc(C(N)=O)c(Nc2ccc(S(C)(=O)=O)cc2)n1)C(N)=O` [Example 159, (R)-5-(1-amino-1-oxobutan-2-ylamino)-3-(4-(methylsulfonyl)phenylamino)pyrazine-2-carboxamide], the IC50 fell in the range of 10 to 100 nM. For the molecule `CC(C)[C@@H](Nc1cnc(C(N)=O)c(Nc2ccc(S(C)(=O)=O)cc2)n1)C(N)=O` [Example 160, (R)-5-(1-amino-3-methyl-1-oxobutan-2-ylamino)-3-(4-(methylsulfonyl)phenylamino)pyrazine-2-carboxamide], the IC50 is 10 to 100 nM. The result for `CC[C@@H](Nc1cnc(C(N)=O)c(Nc2ccc(N(C)C(C)=O)cc2)n1)C(N)=O` [Example 161, (R)-5-(1-amino-1-oxobutan-2-ylamino)-3-(4-(N-methylacetamido)phenylamino)pyrazine-2-carboxamide] reads 100 to 1000 nM. To `Cc1ccc(Nc2nc(N[C@@H](C(N)=O)C(C)C)cnc2C(N)=O)cc1C` [Example 162, (R)-5-(1-amino-3-methyl-1-oxobutan-2-ylamino)-3-(3,4-dimethylphenylamino)pyrazine-2-carboxamide] belongs 10 to 100 nM; to `Cc1cc(C)cc(Nc2nc(N[C@@H](C(N)=O)C(C)C)cnc2C(N)=O)c1` [Example 163, (R)-5-(1-amino-3-methyl-1-oxobutan-2-ylamino)-3-(3,5-dimethylphenylamino)pyrazine-2-carboxamide], 10 to 100 nM; to `COc1cc(Nc2nc(N[C@H](CC3CC3)C(N)=O)cnc2C(N)=O)cc(OC)c1` [Example 164, (R)-5-(1-amino-3-cyclopropyl-1-oxopropan-2-ylamino)-3-(3,5-dimethoxyphenylamino)pyrazine-2-carboxamide], 1 to 10 nM. Regarding `COc1ccc(Nc2nc(N[C@@H]3CCCC(F)(F)[C@@H]3N)cnc2C(N)=O)cc1OC` [Example 165, 5-((1R,2R)-2-amino-3,3-difluorocyclohexylamino)-3-(3,4-dimethoxyphenylamino)pyrazine-2-carboxamide], the IC50 lay within 1 to 10 nM.

`CS(=O)(=O)c1ccc(Nc2nc(N[C@H](CC3CC3)C(N)=O)cnc2C(N)=O)cc1` [Example 166, (R)-5-(1-amino-3-cyclopropyl-1-oxopropan-2-ylamino)-3-(4-(methylsulfonyl)phenylamino)pyrazine-2-carboxamide]: the IC50 lay within 1 to 10 nM. Regarding `CS(=O)(=O)c1ccc(Nc2nc(N[C@@H]3CCCC(F)(F)[C@@H]3N)cnc2C(N)=O)cc1` [Example 167, 5-((1R,2R)-2-amino-3,3-difluorocyclohexylamino)-3-(4-(methylsulfonyl)phenylamino)pyrazine-2-carboxamide], the IC50 is 10 to 100 nM.

As for `COc1cc(Nc2nc(N[C@@H]3CCCC(F)(F)[C@@H]3N)cnc2C(N)=O)cc(OC)c1` [Example 168, 5-((1R,2R)-2-amino-3,3-difluorocyclohexylamino)-3-(3,5-dimethoxyphenylamino)pyrazine-2-carboxamide], the 50% inhibitory concentration (IC50) lay in the range of 10 to 100 nM. The result for `Cc1ccc(Nc2nc(N[C@@H]3CCCC(F)(F)[C@@H]3N)cnc2C(N)=O)cc1C` [Example 169, 5-((1R,2R)-2-amino-3,3-difluorocyclohexylamino)-3-(3,4-dimethylphenylamino)pyrazine-2-carboxamide] reads 1 to 10 nM; that for `CC[C@@H](Nc1cnc(C(N)=O)c(Nc2ccc(S(=O)(=O)N(C)C)cc2)n1)C(N)=O` [Example 170, (R)-5-(1-amino-1-oxobutan-2-ylamino)-3-(4-(N,N-dimethylsulfamoyl)phenylamino)pyrazine-2-carboxamide], 10 to 100 nM.
